Reference: patent US20230381142A1, “ANTILEISHMANIAL COMPOUNDS, COMPOSITIONS AND USE THEREOF” (TRUSTEES OF BOSTON UNIVERSITY, priority 2022, published 2023)
Read-outs that look alike come from different tables or passages of the source. Marks after values point to notes of the source that are not given here. Values belong to the compound of their own block, whether it stands above or below them.

Legend:
B10R cells = assay: UCSD infection assay, host cell cytotoxicity (CC50); assay type: cell-based; details: host B10R cells
[1] = system: L. donovani intracellular amastigotes infecting THP-1 cells; assay: High content intracellular amastigote assay in THP-1 cells (Assay Conditions B; CDIPD screen); assay type: cell-based, Leishmania donovani; details: 10 μM; THP-1 cells; footnote b
Experimental: (§1) Assay Conditions B: THP-1 cells (human acute monocytic leukemia cell line—ATCC TIB202) were grown in RPMI supplemented with 10% Fetal Bovine Serum (FBS) and 50 μM 2-mercaptoethanol at 37° C. in 5% CO2. THP-1 were seeded in microwell plates at 5×10^5 cells/mL density and treated with 0.1 μM phorbol myristate acetate (PMA, Sigma) at 37° C. for 48 h for differentiation into adherent, non-dividing macrophages. After activation by PMA, cells were washed and incubated with complete RPMI medium containing stationary phase Leishmania promastigotes (L. major: strain LV39; L. donovani, strain 1S/Cl2D) at a 1:15 parasite-cell ratio. Compounds were added and incubated at 37° C. for 72 h. Cells were then washed with phosphate-buffered saline (PBS), fixed for 30 minutes with 4% formaldehyde, rinsed again with PBS, stained for 2 h with 4′,6′-diamidino-2-phenylindole (DAPI 300 nM) and finally washed with PBS. In a collaborative effort to identify new antileishmanial chemotypes with minimal host cell cytotoxicity, compounds from the Boston University Center for Molecular Discovery (BUCMD) screening collection were assessed in a phenotypic, high content primary screen at the University of California's Center for Discovery and Innovation in Parasitic Diseases (CDIPD) for the ability to inhibit growth of L. donovani intracellular amastigotes infecting THP-1 cells. […] Dose-response testing in L. donovani (both intracellular amastigotes and promastigotes) confirmed concentration-dependent growth inhibition of both morphologies of the parasite at low micromolar EC50 values for both compounds (Table 1).

[2] = system: L. major promastigotes (strain LV39); assay: Promastigote assay, CellTiter-Glo (Assay Conditions F); assay type: cell-based; details: Leishmania major; footnote f; read-out: L. major promastigotes EC50
Experimental: (§2) Assay Conditions F: Leishmania promastigotes (L. major: strain LV39; L. donovani, strain 1S/Cl2D) were maintained as previously described in PloS Negl Trop Dis (2015) 9(3):e0003588 and Pathogens (2021) 10(5):593) at 28° C. in M199 media supplemented with glutamine, adenosine, folic acid, hemin, HEPES, 10% Fetal Bovine Serum (Sigma-Aldrich, cat. no. F2442) and 1% Penicillin-Streptomycin (Gibco, cat. no. 15140122). For the promastigote assay, we followed the method previously described in PloS Negl Trop Dis (2011) 5(7):e1253. Briefly, promastigotes were incubated with the compounds for 72 h at 27° C., then lysed by adding 50 μL of CellTiter-Glo (Promega) and placed on an orbital shaker for 5 min at room temperature. After lysis, the resulting ATP-bioluminescence was measured using the Analyst HT plate reader (Molecular Devices).

[3] = system: L. donovani promastigotes (strain 1S/Cl2D); assay: as above; assay type: cell-based; details: Leishmania donovani; footnote f; read-out: L. donovani promastigotes EC50
Experimental: as §2

[4] = system: L. donovani intracellular amastigotes in B10R cells; assay: UCSD L. donovani infection assay (Assay Conditions D); assay type: cell-based; details: B10R cells; for L. donovani amastigotes EC75 (B10R cells): footnote d; for EC50: Leishmania donovani, values marked d, read-out: L. donovani amastigotes EC50 (B10R cells)
How it was run: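 Compounds, either single-point at 10 μM or 10-point 2-fold series (3 technical, 2 biological replicates), were incubated 72 h at 37° C. with B10R host cells co-seeded with day-7 stationary L. donovani promastigotes (20:1). DAPI-stained nuclei imaging yielded intracellular parasite EC50 and host-cell CC50.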

[5] = system: L. major (strain LV39) intracellular amastigotes infecting THP-1 cells; assay: High content intracellular amastigote assay in THP-1 cells (Assay Conditions B); assay type: cell-based, Leishmania major; details: THP-1 cells; values marked b
Experimental: as §1

[6] = GSK inMac assay, host cell toxicity readout (LD MAC); assay type: cell-based, human; details: human; footnote c; read-out: THP-1 Host Cell CC50
How it was run: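 MAC EC50 reflects THP-1 host cell counts, measured within GSK's inMac L. donovani infection assay that also scores intracellular amastigotes and infected-cell percentage.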

[7] = system: L. donovani intracellular amastigotes infecting THP-1 macrophages; assay: GSK intramacrophage L. donovani assay (LD AMMAC, inMac; Assay Conditions C); assay type: cell-based; details: Leishmania donovani; THP-1 cells; values marked c; read-out: L. donovani amastigotes EC50 (THP-1 cells)
How it was run: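 EC50 values come from counting amastigotes per infected THP-1 macrophage (AMMAC). Parallel read-outs give percentage of infected cells per well (INFCELL) and a macrophage-number toxicity EC50 (MAC).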

THP-1 cells = assay: Host THP-1 cell cytotoxicity in the CDIPD high content screen; assay type: cell-based, human; details: Homo sapiens, THP-1; 10 μM; footnote b; read-out: THP-1 host cell % growth inhibition at 10 μM
Experimental: as §1

[8] = system: L. braziliensis-infected macrophages; assay: Macrophage (BMDM) infection with L. braziliensis and exposure to CMLDs; assay type: cell-based, Leishmania braziliensis; details: for number of amastigotes per 100 macrophages / percentage of infected macrophages / EC50: 24 h exposure; for EC50: Leishmania braziliensis, Macrophage, percentage of infected macrophages, read-out: EC50 against L. braziliensis-infected macrophages
Experimental: Leishmania braziliensis (MIHOM/BR/00/BA788) and L. major (Friedlin) promastigotes were maintained in Schneider's medium (SIGMA) supplemented with 10% heat-inactivated FCS, 100 U/ml penicillin, 100 μg/ml streptomycin (all from Invitrogen).
BMDM were obtained as described above. Cells were resuspended in DMEM medium supplemented with 100 U/mL penicillin, […] streptomycin, and 10% heat-inactivated Fetal Bovine Serum (all from Invitrogen) and seeded at a density of 3×10^5 cells per well in 24-well culture plates. Monolayers received 3×10^6 cells L. braziliensis promastigotes and were incubated at 37° C. in supplemented DMEM medium for 24 h. Infected macrophages were then washed to remove non-internalized parasites. Compounds CMLD 011128, CMLD010947, CMLD010498, and CMLD011494 were added at different concentrations. After 24 hours, cells were extensively washed, fixed and stained with hematoxylin and eosin (H&E). The number of infected cells and of intracellular amastigotes were counted by optical microscopy in 200 macrophages. Positive controls consisted of cultures treated with Amphotericin B (0.25 μg/mL, Invitrogen). Cultures were performed in quintuplicate. Alternatively, infected macrophages were treated as described, monolayers were extensively washed and the medium was replaced by 0.5 ml of supplemented Schneider medium. Cells were cultured for seven additional days at 26° C., when number of viable promastigotes was determined using hemocytometer.
Results were expressed as the mean percentage reduction of infected cells compared with untreated control wells. Half-maximal effective concentrations (EC50) were determined by sigmoidal regression curves using Prism 7.0 software (GraphPad Software Inc.)

[9] = system: macrophages from bone marrow; assay: Cellular viability of macrophages (Cell Titer Glo); assay type: cell-based, murine; details: 500-1000 nM, 24 h
Experimental: Briefly, macrophages were obtained from bone marrow and seeded at a density of 1×10^6 cells per well in 24-well culture plates. After 2 hours, cells were treated with compounds at two concentrations (500 and 1000 nm) for 24 hours. Cell viability was determined using Cell Titer Glo (Promega), according to manufacturer's instructions. For positive control, pararosaniline chloride was used.

[10] = system: L. braziliensis (strain BA788) in J774 cells; assay: J774 luciferase infection assay (Assay Conditions E); assay type: cell-based, Leishmania braziliensis; details: footnote e
How it was run: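 J774A.1 macrophages infected 24 h with luciferase/GFP-expressing stationary-phase promastigotes (L. major Friedlin or L. braziliensis BA788, 1:10 parasite:cell), washed, then exposed 48 h at 37 °C, 5% CO2 to 8-point 2-fold dilutions. OneTiterGlo bioluminescence read; EC75 calculated.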

[11] = system: L. major-infected murine macrophages; assay: Macrophage infection with L. major and exposure to CMLDs; assay type: cell-based, Leishmania major; details: for number of intracellular amastigotes / percentage of infected cells: L. major, only observed at the highest dose (1 μM)
[12] = system: L. major (strain Friedlin) in J774 cells; assay: J774 luciferase infection assay (Assay Conditions E); assay type: cell-based, Leishmania major; details: values marked e
Experimental: Assay Conditions E: J774 cells (ATCC J774A.1 were grown in DMEM supplemented with 10% Fetal Bovine Serum (FBS) and 1% Penicillin-Streptomycin at 37° C. in 5% CO2. Leishmania parasites expressing luciferase and GFP were grown as described in Front. Cell. Infect. Microbiol (2019) 9:237. J774 cells were seeded in microwell plates at 3×10^5 cells/mL density. Cells were washed with PBS and incubated with complete DMEM medium containing stationary phase Leishmania promastigotes (L. major: strain Friedlin; L. braziliensis, strain BA788) at a 1:10 parasite-cell ratio for 24 h. Cells were washed with PBS. Cells and compounds were incubated for 48 h at 37° C. and 5% C02. Compounds were tested in 8-point 2-fold serial dilution in 4 technical replicates, and 2 biological replicates. After 48 h, OneTiterGlo (Promega) (100 μl) was added to each well. Plates were incubated for 15 min and bioluminescence was measured using a plate reader (Molecular Devices). Effective concentration inducing 75% activity (EC75) was calculated using GraphPad Prism Software (version 9.0).

[13] = UCSD infection assay, host cell cytotoxicity (CC50); assay type: cell-based; details: mouse, B10R host cells infected with L. donovani; footnote d
[14] = system: L. donovani intracellular amastigotes infecting THP-1 macrophages; details: GlaxoSmithKline Phase I VL candidates; read-out: intramacrophage EC50; cited from earlier work

Structure (SMILES): COc1ncccc1C1c2c(CC(C)C)n[nH]c2C(=O)N1c1ccc2ncnn2c1 (stereo not shown) [BUCMD00162]
- B10R Host Cell CC50 (B10R cells): >10 µM

- EC50 [7]: 3200 nM
Structure (SMILES): COc1ccc(N2C(=O)c3[nH]nc(CC(C)C)c3C2c2ccccc2)cc1 (stereo not shown) [CMLD007427]
- L. donovani amastigotes % GI at 10 μM (THP-1 cells) [1]: 100.0%
- EC50 [2]: 4.2 µM
- EC50 [3]: 2400 nM
- L. donovani amastigotes EC75 (B10R cells) [4]: 1.1 µM
- L. major amastigotes EC75 (THP-1 cells) [5]: 1.7^b μM
- CC50 [6]: 31.6 µM
- inhibition at 10 µM (THP-1 cells): 11%

- EC50 [7]: 2500 nM
Structure (SMILES): COc1ccc(N2C(=O)c3[nH]nc(CC(C)C)c3C2c2ccc(F)cc2)cc1 (stereo not shown) [CMLD007431]
- L. donovani amastigotes % GI at 10 μM (THP-1 cells) [1]: 99.0%
- EC50 [2]: 4.4 µM
- EC50 [3]: 2000 nM
- L. donovani amastigotes EC75 (B10R cells) [4]: 1.0 µM
- L. major amastigotes EC75 (THP-1 cells) [5]: 1.3^b μM
- CC50 [6]: > 20 µM
- inhibition at 10 µM (THP-1 cells): 13%

Structure (SMILES): Cc1cc(F)ccc1C1c2c(CC(C)C)n[nH]c2C(=O)N1c1ccc2ncnn2c1 (stereo not shown) [CMLD010948]
- leishmanicidal effect on L. braziliensis infection in vitro [8]: reduces L. braziliensis infection
- number of amastigotes per 100 macrophages ([8]; L. braziliensis): significant decrease
- percentage of infected macrophages ([8]; L. braziliensis): significant decrease
- EC50 [8]: > 5000 nM
- L. donovani amastigotes EC75 (B10R cells) [4]: 1.1 µM
- EC50 [4]: 900 nM
- cell viability of macrophages [9]: did not change cell viability
- L. braziliensis amastigotes EC75 (J774 cells) [10]: 5.5 µM
- CC50 [6]: > 20 µM
- L. major infection in vitro [11]: reduce L. major infection
- number of intracellular amastigotes [11]: significant decreased
- percentage of infected cells [11]: significant decreased

Structure (SMILES): COc1cc(F)ccc1C1c2c(CC(C)C)n[nH]c2C(=O)N1c1ccc(Br)cc1 (stereo not shown) [CMLD011494]
- leishmanicidal effect on L. braziliensis infection in vitro [8]: reduces L. braziliensis infection
- number of amastigotes per 100 macrophages ([8]; L. braziliensis): significantly reduced
- percentage of infected macrophages ([8]; L. braziliensis): significantly reduced
- number of viable promastigotes after exposure of infected BMDM ([8]; L. braziliensis, culture in Schneider medium): significantly reduced
- EC50 [8]: 1640 nM
- L. donovani amastigotes EC75 (B10R cells) [4]: 0.1 µM
- EC50 [4]: 100 nM
- cell viability of macrophages [9]: did not change cell viability
- L. braziliensis amastigotes EC75 (J774 cells) [10]: 5.2 µM
- L. major amastigotes EC75 (J774 cells) [12]: 2.8^e μM
- CC50 [6]: 4 µM
- L. major infection in vitro [11]: reduce L. major infection
- number of intracellular amastigotes [11]: significant decreased
- percentage of infected cells [11]: significant decreased
- CC50 at 72 h [13]: 3.98 µM

Structure (SMILES): C[C@H]1CN(c2n[nH]c3nc(N[C@H]4CC[C@H](NS(=O)(=O)CCC(F)(F)F)CC4)ncc23)CCO1 [GSK3186899]
- EC50 [14]: 1400 nM

Structure (SMILES): O=C(Nc1ccc(F)c(-c2ccn3c(N4CCOCC4)cnc3n2)c1)N1CCCC1 [GSK3494245]
- EC50 [14]: 1600 nM
